Test results as given in US20130150399A1, “INHIBITORS OF THE UNFOLDED PROTEIN RESPONSE AND METHODS FOR THEIR USE” (The Board of Trustees of the Leland Stanford Junior …, priority 2006, published 2013).

Tests used:
[1] = Potential toxicities of irestatin 9389, increasing i.p. doses; type: in vivo
Protocol: Female 4-6 week-old SCID (B6.CB 17) mice supplied by Stanford University Animal Facility were housed in the same facility (American Association of Laboratory Animal Care-approved) with 12 hour light cycles. Food and water were provided ad libitum. All experiments were approved by the institutional care and use committee. The potential toxicities of irestatin 9389 were examined in SCID mice injected i.p. once daily over 4 consecutive days with increasing doses of irestatin 9389 or vehicle control. […] For xenografts, 2×10^6 HT1080 fibrosarcoma cells were resuspended in 50-75 μl PBS and injected s.c. in the dorsal flanks of host mice. When the implanted tumors reached a mean volume of ˜150 mm^3, mice were randomly assigned into different treatment groups. Mice were dosed by i.p. bolus injection with either vehicle (50% DMSO, 20% cremophor EL, 30% ethanol) or irestatin 9389 (50 mg/kg). Tumors (6-8 per group) were measured every 2-4 days with calipers. Tumor volume was calculated using the formula [(W^2×L) 0.52] where W=width and L=length.

XBP-1s = assay: Western immunoblot of XBP-1s, HT1080 cells; type: cell-based, human
Protocol: Cells were harvested, lysed, and analyzed by Western blot using anti-XBP-1 antisera (lower panel) or anti-HIF-1 antisera (top panel) to confirm hypoxia exposure.
Cells (2×10^6) were cultured in 10-cm dishes, collected using a cell scraper at 4° C., and lysed by addition of 150 μl cell lysis buffer [50 mM Tris pH 7.4, 150 mM NaCl, 10% glycerol, 0.5% Triton X-100. 0.5% NP-40, 2 mM Na3VO4, 20 mM beta-glycerophosphate, 10 mM NaF, 1 mM DTT, 1 mM PMSF). Lysates were centrifuged for 5 min at 10,000×g, and proteins (˜40 μg) were resolved by SDS-PAGE followed by semi-dry transfer to nitrocellulose membranes. Membranes were blocked in TBS-5% milk supplemented with 0.1% Tween-20. […] After washing in block solution, immunoreactive material was detected by enhanced chemiluminescence (SuperSignal West Dura Extended, Pierce, Inc., Rockville, Ill.).
A. XBP-luciferase reporter construct. […] After 24 hours, luciferase activity was analyzed in an automated plate reader. For each cell line, values are expressed as the percent inhibition of the median for Tm/Tg-treated wells, corrected for background. […] Values are expressed as the fold increases over uninduced levels. […] Cells were harvested, lysed, and analyzed by immunoblotting with antisera specific for HIF-1α (top), XBP-1s (middle) or actin (bottom). […] Total RNA was analyzed by Northern blotting using radiolabeled probes specific for P58^IPK or DER-1. […]

## Cc1csc(NC(=O)CSc2nc3c(c(C(F)(F)F)c2C#N)CCC3)n1 [Compound 9389]
[1]; dosing regimen of 50-60 mg/kg i.p.
  toxicity: without apparent toxicity
[1]; female, SCID (B6.CB 17), mouse, in vivo, 4 days
  dosing regimen of 50-60 mg/kg as share of the LD50 value: 75%
XBP-1s; 2 μM, 24 hours of hypoxia
  levels of XBP-1s under hypoxia: decreased levels of XBP-1s
XBP-1s; irestatins 2 μM, Tm (4 μg/ml) 20 hours
  accumulation of XBP-1s following treatment with Tm: blocked the accumulation of XBP-1s
